# According to ChEMBL document CHEMBL5154690, “Discovery of a tricyclic farnesoid X receptor agonist HEC96719, a clinical candidate for treatment of non-alcoholic steatohepatitis” (Eur J Med Chem, 2022):
# The source made the active and inactive calls. No cut-off for these calls is given here.
# What was measured:
# [1] = Clearance in male Beagle dog at 1 mg/kg, iv measured by LC-MS/MS analysis; assay type: ADME, organism-based, Canis lupus familiaris; details: in vivo
# [2] = Ratio of drug level in skin to plasma in male Sprague-Dawley rat at 4.5 mg/kg, po administered as C14-lableled compound and measured at 0.25 to 6 hrs; assay type: ADME, organism-based; details: other tissue, time 0.25-6 hrs
# [3] = Drug recovery in liver of male Sprague-Dawley rat at 4.5 mg/kg, po administered as C14-lableled compound and assessed as radioactivity and measured at 1 hr; assay type: ADME, organism-based; details: in vivo
# [4] = system: Mus musculus; experiment: Antifibrotic activity in C57BL/6 mouse model of CCI4-induced liver fibrosis assessed as decrease in serum TBIL level at 0.1 to 1 mg/kg, po administered once daily for 4 weeks; assay type: functional, organism-based; details: dose 0.1-1 mg/kg
# [5] = biological target: Voltage-gated inwardly rectifying potassium channel KCNH2 (Homo sapiens, UniProt Q12809); experiment: Inhibition of hERG; assay type: toxicity
# [6] = Mutagenecity in Salmonella typhimurium TA98 measured by Ames test; assay type: toxicity; details: salmonella enterica subsp. enterica serovar typhimurium
# [7] = Drug recovery in kidney of male Sprague-Dawley rat at 4.5 mg/kg, po administered as C14-lableled compound and assessed as radioactivity and measured at 0.25 hrs; assay type: ADME, organism-based; details: in vivo
# [8] = Drug recovery in stomach of male Sprague-Dawley rat at 4.5 mg/kg, po administered as C14-lableled compound and assessed as radioactivity and measured at 6 hrs; assay type: ADME, organism-based; details: in vivo
# [9] = Volume of distribution at steady state in male Beagle dog at 1 mg/kg, iv measured by LC-MS/MS analysis; assay type: ADME, organism-based, Canis lupus familiaris; details: in vivo, read-out: Vdss
# [10] = Drug recovery in stomach of male Sprague-Dawley rat at 4.5 mg/kg, po administered as C14-lableled compound and assessed as radioactivity and measured at 24 hrs; assay type: ADME, organism-based; details: in vivo
# [11] = Drug recovery in skin of male Sprague-Dawley rat at 4.5 mg/kg, po administered as C14-lableled compound and assessed as radioactivity and measured at 6 hrs; assay type: ADME, organism-based, Skin of body; details: in vivo, BLD = below limit of detection
# [12] = Drug recovery in spleen of male Sprague-Dawley rat at 4.5 mg/kg, po administered as C14-lableled compound and assessed as radioactivity and measured at 0.25 hrs; assay type: ADME, organism-based; details: in vivo
# [13] = biological target: T1, Bile acid receptor (Homo sapiens, UniProt Q96RI1); experiment: Agonist activity at FXR-LBD (unknown origin) assessed as induction of coactivator SRC-1 peptide recruitment measured by TR-FRET assay
# T1 sequence (Q96RI1 whole entry): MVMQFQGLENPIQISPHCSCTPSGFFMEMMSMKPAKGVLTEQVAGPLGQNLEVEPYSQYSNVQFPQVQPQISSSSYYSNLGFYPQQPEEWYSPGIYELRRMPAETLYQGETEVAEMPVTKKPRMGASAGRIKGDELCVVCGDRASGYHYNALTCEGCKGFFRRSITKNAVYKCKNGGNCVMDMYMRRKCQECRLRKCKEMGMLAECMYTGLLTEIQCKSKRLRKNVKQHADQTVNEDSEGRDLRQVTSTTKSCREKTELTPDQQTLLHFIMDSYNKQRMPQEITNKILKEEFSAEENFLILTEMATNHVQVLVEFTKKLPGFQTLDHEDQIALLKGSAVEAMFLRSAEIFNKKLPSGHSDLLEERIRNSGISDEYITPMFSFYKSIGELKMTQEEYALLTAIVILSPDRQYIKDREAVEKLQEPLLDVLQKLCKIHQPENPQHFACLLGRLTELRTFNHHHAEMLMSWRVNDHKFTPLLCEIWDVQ
# [14] = Half-life in male Sprague-Dawley rat at 1 mg/kg, iv measured by LC-MS/MS analysis; assay type: ADME, organism-based; details: in vivo
# [15] = system: Mus musculus; experiment: Antifibrotic activity in C57BL/6 mouse model of CCI4-induced liver fibrosis assessed as reduction in fibrosis area at 0.1 to 1 mg/kg, po administered once daily for 4 weeks; assay type: functional, organism-based; details: dose 0.1-1 mg/kg
# [16] = Drug metabolism in urine of Sprague-Dawley rat assessed as production of toxic metabolites at 4.5 mg/kg, po administered as C14-lableled compound with single dose; assay type: ADME, organism-based; details: in vivo
# [17] = Mutagenecity in Salmonella typhimurium TA100 measured by Ames test; assay type: toxicity; details: salmonella enterica subsp. enterica serovar typhimurium
# [18] = biological target: T2, Nuclear receptor subfamily 1 group I member 2 (Homo sapiens, UniProt O75469); experiment: Agonist activity at PXR (unknown origin)
# T2 sequence (O75469 whole entry): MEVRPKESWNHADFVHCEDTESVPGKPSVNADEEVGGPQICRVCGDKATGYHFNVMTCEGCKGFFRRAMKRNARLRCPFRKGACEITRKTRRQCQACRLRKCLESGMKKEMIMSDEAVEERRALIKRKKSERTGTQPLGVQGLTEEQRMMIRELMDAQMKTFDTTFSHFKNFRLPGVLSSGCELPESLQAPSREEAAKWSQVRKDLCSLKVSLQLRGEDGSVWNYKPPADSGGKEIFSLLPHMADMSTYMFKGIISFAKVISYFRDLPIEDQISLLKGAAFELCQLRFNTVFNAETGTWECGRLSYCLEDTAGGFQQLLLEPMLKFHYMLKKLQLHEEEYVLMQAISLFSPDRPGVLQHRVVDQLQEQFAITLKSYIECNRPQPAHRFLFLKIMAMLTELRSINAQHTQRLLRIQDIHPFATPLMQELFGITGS
# [19] = Drug recovery in kidney of male Sprague-Dawley rat at 4.5 mg/kg, po administered as C14-lableled compound and assessed as radioactivity and measured at 1 hr; assay type: ADME, organism-based; details: in vivo
# [20] = system: Mus musculus; experiment: Anti-NASH activity in western style diet-induced nonalcoholic steatohepatitis model of male C57BL/6 mouse assessed as reduction in liver TG level at 1 mg/kg, po administered once daily from week 32 to 44; assay type: functional, organism-based
# [21] = Drug recovery in plasma of male Sprague-Dawley rat at 4.5 mg/kg, po administered as C14-lableled compound and assessed as radioactivity and measured at 1 hr; assay type: ADME, organism-based; details: in vivo
# [22] = Drug recovery in skin of male Sprague-Dawley rat at 4.5 mg/kg, po administered as C14-lableled compound and assessed as radioactivity and measured at 24 hrs; assay type: ADME, organism-based, Skin of body; details: in vivo, BLD = below limit of detection
# [23] = Drug recovery in plasma of male Sprague-Dawley rat at 4.5 mg/kg, po administered as C14-lableled compound and assessed as radioactivity and measured at 24 hrs; assay type: ADME, organism-based; details: in vivo, BLD = below limit of detection
# Chain of Voltage-gated inwardly rectifying potassium channel KCNH2 (Q12809 whole entry): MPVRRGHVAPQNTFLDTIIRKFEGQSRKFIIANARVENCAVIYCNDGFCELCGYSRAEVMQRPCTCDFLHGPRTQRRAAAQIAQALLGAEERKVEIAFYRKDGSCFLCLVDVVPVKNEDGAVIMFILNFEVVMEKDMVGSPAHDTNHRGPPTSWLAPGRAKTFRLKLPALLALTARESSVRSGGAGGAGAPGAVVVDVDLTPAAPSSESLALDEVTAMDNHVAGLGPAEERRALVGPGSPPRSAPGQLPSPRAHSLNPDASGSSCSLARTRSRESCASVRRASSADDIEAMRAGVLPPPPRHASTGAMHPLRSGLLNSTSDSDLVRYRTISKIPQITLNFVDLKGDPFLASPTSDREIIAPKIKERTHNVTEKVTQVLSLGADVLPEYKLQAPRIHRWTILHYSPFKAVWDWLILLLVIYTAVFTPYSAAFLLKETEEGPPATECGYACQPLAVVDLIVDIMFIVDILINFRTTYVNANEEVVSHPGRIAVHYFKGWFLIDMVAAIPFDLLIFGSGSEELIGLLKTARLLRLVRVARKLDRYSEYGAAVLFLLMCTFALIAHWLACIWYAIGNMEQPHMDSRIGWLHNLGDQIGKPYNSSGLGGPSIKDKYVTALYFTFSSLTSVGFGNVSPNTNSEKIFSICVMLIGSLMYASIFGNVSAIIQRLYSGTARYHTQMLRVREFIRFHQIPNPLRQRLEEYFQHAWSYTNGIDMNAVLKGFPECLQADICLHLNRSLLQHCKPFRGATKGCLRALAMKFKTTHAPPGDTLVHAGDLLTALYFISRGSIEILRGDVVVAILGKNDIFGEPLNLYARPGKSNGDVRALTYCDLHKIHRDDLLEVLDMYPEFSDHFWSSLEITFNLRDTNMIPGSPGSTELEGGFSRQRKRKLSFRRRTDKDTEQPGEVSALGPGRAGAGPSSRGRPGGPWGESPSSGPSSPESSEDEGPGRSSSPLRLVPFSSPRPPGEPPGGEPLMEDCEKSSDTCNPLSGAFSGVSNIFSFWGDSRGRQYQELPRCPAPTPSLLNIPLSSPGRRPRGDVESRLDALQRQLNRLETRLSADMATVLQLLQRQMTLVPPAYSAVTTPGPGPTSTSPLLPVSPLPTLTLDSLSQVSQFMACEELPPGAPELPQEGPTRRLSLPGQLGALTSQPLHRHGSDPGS
smiles,measurement,setting,value
O=C(O)c1ccc2c(c1)Oc1ccc(OCc3c(-c4c(Cl)cccc4Cl)noc3C3CC3)nc1C1(CC1)C2,clearance,[1],18.4 mL/min/kg
same,Ratio,[2],0.56
same,Drug recovery,[3],6520 ngequiv/g
same,Activity,[4],Active
same,IC50,[5],> 5.24 µM
same,Activity,[6],Non-Toxic
same,Drug recovery,[7],281 ngequiv/g
same,Drug recovery,[8],188 ngequiv/g
same,Vd,[9],1.12 L/kg
same,Drug recovery,[10],108 ngequiv/g
same,Drug recovery,[11],Bld
same,Drug recovery,[12],192 ngequiv/g
same,EC50,[13],0.00137 µM
same,half-life,[14],16.8 min
same,Activity,[15],Active
same,Drug metabolism,[16],Metabolite_Notdetected
same,Activity,[17],Non-Toxic
same,EC50,[18],> 10 µM
same,Drug recovery,[19],457 ngequiv/g
same,Activity,[20],Active
same,Drug recovery,[21],305 ngequiv/g
same,Drug recovery,[22],Bld
same,Drug recovery,[23],Bld
